# Source: US12522597B2, “Methods and compositions for modulating splicing” (Skyhawk Therapeutics, Inc., priority 2019, dated 2026)
# Tests used:
# mHTT protein = mHTT protein assay (2B7-MW1, Mesoscale Discovery); type: cell-based, human; details: GM04724 (CAG 70/20) Huntington's disease patient lymphoblast cells, 48 hours, 2B7-MW1 MSD; read-out: HTT Potency - Protein EC50 mHTT (average)
# Description: Compounds are tested on GM04724 (CAG 70/20) Huntington's disease patient lymphoblast cells at doses ranging from 10 μM to 0.6 nM. 4,500 cells/well are seeded in 384 well plates. One plate replica is carried out for parallel viability testing by CellTiter Glo (CTG). Compounds are incubated for 48 hours, mHTT protein levels are assessed by the 2B7-MW1 assay via Mesoscale Discovery (MSD) as previously reported (Macdonald et al., 2014). The antibody pair is comprised of previously characterized monoclonals (2B7 and MW1) interrogating two regions for HTT conformation and biological properties: the N17 domain and the polyQ domain (Baldo et al., 2012; Ko et., 2001). 2B7-MW1 is dependent on subject/animal specific levels of HTT at the time of treatment. 2B7-MW1 is dependent on polyQ expansion (e.g., the higher the expansion the higher the signal) and on mHTT size (e.g., a similar polyQ will give higher signal with smaller HTT size). The viability readout is carried out by CTG according to the manufacturer's instructions.
# [1] = tested on: MDR1-MDCK cell monolayers; test: MDCK-MDR1 permeability assay (BBB penetration potential); type: in vitro ADME; details: dog, MDCK-MDR1, 120 min, 5 μM, pH 7.4
# Description: (§1) Each determination is performed in duplicate. […] Analytical conditions are outlined below.
# MDR1 = test: as above; type: in vitro ADME; details: dog; for efflux ratio at 120 min, 5 μM: MDCK-MDR1, pH 7.4, MDCK-MDR1: Efflux; for Papp A→B at 120 min, 5 μM: MDCK-MDR1, pH 7.4, MDCK-MDR1: Papp A-B; for Papp B→A at 120 min, 5 μM: MDCK-MDR1, pH 7.4, MDCK-MDR1: Papp B-A
# Description: as §1
SMILES,EC50 (mHTT protein),MDCK-MDR1: % Recov A-B [1],MDCK-MDR1: % Recov B-A [1],"efflux ratio at 120 min, 5 μM (MDR1)","Papp A→B at 120 min, 5 μM (MDR1)","Papp B→A at 120 min, 5 μM (MDR1)"
"Cc1cncc(-c2ccc(-c3ccc(O[C@@H]4C[C@H]5CCC[C@H](N5)[C@@H]4F)nn3)c(O)c2)c1 (single isomer, unassigned) [89-ENT1]",0.501 to 10 µM,68%,76%,6,6.05 ×10⁻⁶ cm/s,33.8 ×10⁻⁶ cm/s
"Cc1nocc1-c1ccc(-c2ccc(O[C@H]3C[C@@H]4CCC[C@@H](N4)[C@H]3F)nn2)c(O)c1 (single isomer, unassigned) [72-ENT2]",0.101 to 0.5 µM,64%,74%,7,4.67 ×10⁻⁶ cm/s,34.9 ×10⁻⁶ cm/s
"Cn1cc(-c2ccc(-c3ccc(O[C@@H]4C[C@@H]5CCC[C@@H](N5)[C@@H]4F)nn3)c(O)c2)cn1 (single isomer, unassigned) [122-ENT2]",0.501 to 10 µM,60%,76%,6,6.08 ×10⁻⁶ cm/s,38.4 ×10⁻⁶ cm/s
"Oc1cc(-c2ccnnc2)ccc1-c1ccc(O[C@H]2C[C@@H]3CCC[C@@H](N3)[C@H]2F)nn1 (single isomer, unassigned) [87-ENT2]",0.101 to 0.5 µM,105%,108%,14,3.9 ×10⁻⁶ cm/s,56.1 ×10⁻⁶ cm/s
"Cn1ccc(=O)c2cc(O)c(-c3ccc(O[C@H]4C[C@]5(C)CCC[C@@](C)(N5)[C@H]4F)nn3)cc21 (single isomer, unassigned) [132-ENT1]",0.101 to 0.5 µM,90%,95%,142,0.1 ×10⁻⁶ cm/s,14.7 ×10⁻⁶ cm/s
"Cc1ncc(-c2ccc(-c3ccc(O[C@H]4C[C@@H]5CCC[C@@H](N5)[C@H]4F)nn3)c(O)c2)o1 (single isomer, unassigned) [93-ENT2]",0.016 to 0.05 µM,67%,88%,4,9.43 ×10⁻⁶ cm/s,41.5 ×10⁻⁶ cm/s
"Cn1cc(-c2ccc(-c3ccc(O[C@H]4C[C@]5(C)CC[C@@](C)(N5)[C@H]4F)nn3)c(O)c2)cn1 (single isomer, unassigned) [150-ENT1]",0.051 to 0.1 µM,77%,85%,4,7.55 ×10⁻⁶ cm/s,27.9 ×10⁻⁶ cm/s
"Cn1cc(-c2cc(O)c(-c3ccc(O[C@H]4C[C@@H]5CCC[C@@H](N5)[C@H]4F)nn3)c(F)c2)cn1 (single isomer, unassigned) [118-ENT2]",0.101 to 0.5 µM,52%,80%,8,4.5 ×10⁻⁶ cm/s,36.8 ×10⁻⁶ cm/s
"Cc1nc(-c2ccc(-c3ccc(O[C@@H]4C[C@H]5CCC[C@H](N5)[C@@H]4F)nn3)c(O)c2)co1 (single isomer, unassigned) [92-ENT1]",0.101 to 0.5 µM,65%,74%,5,5.99 ×10⁻⁶ cm/s,30.9 ×10⁻⁶ cm/s
"Cc1cnc(-c2ccc(-c3ccc(O[C@@H]4C[C@H]5CCC[C@H](N5)[C@@H]4F)nn3)c(O)c2)cn1 (single isomer, unassigned) [78-ENT1]",0.101 to 0.5 µM,65%,78%,3,7.17 ×10⁻⁶ cm/s,24.5 ×10⁻⁶ cm/s
"Cc1cc(-c2ccc(-c3ccc(O[C@H]4C[C@@H]5CCC[C@@H](N5)[C@H]4F)nn3)c(O)c2)cs1 (single isomer, unassigned) [101-ENT2]",0.016 to 0.05 µM,20%,53%,1,0.92 ×10⁻⁶ cm/s,0.55 ×10⁻⁶ cm/s
"Cc1ccc(-c2ccc(-c3ccc(O[C@@H]4C[C@H]5CCC[C@H](N5)[C@@H]4F)nn3)c(O)c2)cn1 (single isomer, unassigned) [67-ENT1]",0.101 to 0.5 µM,44%,62%,7,4.42 ×10⁻⁶ cm/s,29.8 ×10⁻⁶ cm/s
"Cn1ccc(=O)c2cc(O)c(-c3ccc(O[C@H]4C[C@]5(C)CCC[C@@](C)(N5)[C@H]4F)nn3)cc21 (stereo in doubt) [132-ENT2, 7-(6-(((1R,2R,3S,5S)-2-fluoro-1,5-dimethyl-9-azabicyclo[3.3.1]nonan-3-yl)oxy)pyridazin-3-yl)-6-hydroxy-1-methylquinolin-4(1H)-one]",0.101 to 0.5 µM,93%,95%,126,0.11 ×10⁻⁶ cm/s,13.4 ×10⁻⁶ cm/s
"Cc1nnc(-c2ccc(-c3ccc(O[C@@H]4C[C@H]5CCC[C@H](N5)[C@@H]4F)nn3)c(O)c2)s1 (single isomer, unassigned) [95-ENT1]",0.101 to 0.5 µM,72%,78%,10,4.88 ×10⁻⁶ cm/s,48.8 ×10⁻⁶ cm/s
"Oc1cc(-c2ccn3cnnc3c2)ccc1-c1ccc(O[C@@H]2C[C@H]3CCC[C@H](N3)[C@@H]2F)nn1 (single isomer, unassigned) [86-ENT1]",0.101 to 0.5 µM,89%,93%,46,0.54 ×10⁻⁶ cm/s,24.7 ×10⁻⁶ cm/s
"Cc1ncn(-c2ccc(-c3ccc(O[C@H]4C[C@@H]5CCC[C@@H](N5)[C@H]4F)nn3)c(O)c2)n1 (single isomer, unassigned) [70-ENT2]",0.101 to 0.5 µM,94%,105%,5,7.47 ×10⁻⁶ cm/s,40.1 ×10⁻⁶ cm/s
"Cc1nnc(-c2ccc(-c3ccc(O[C@H]4C[C@@H]5CCC[C@@H](N5)[C@H]4F)nn3)c(O)c2)o1 (single isomer, unassigned) [94-ENT2]",0.101 to 0.5 µM,93%,87%,7,6.35 ×10⁻⁶ cm/s,46.7 ×10⁻⁶ cm/s
"Cc1ccc(-c2ccc(-c3ccc(O[C@H]4C[C@@H]5CCC[C@@H](N5)[C@H]4F)nn3)c(O)c2)s1 (single isomer, unassigned) [100-ENT2]",0.101 to 0.5 µM,18%,57%,1,1.14 ×10⁻⁶ cm/s,0.68 ×10⁻⁶ cm/s
"Cc1ccc(-c2ccc(-c3ccc(O[C@@H]4C[C@H]5CCC[C@H](N5)[C@@H]4F)nn3)c(O)c2)o1 (single isomer, unassigned) [99-ENT1]",0.101 to 0.5 µM,9%,47%,1,2.07 ×10⁻⁶ cm/s,2.37 ×10⁻⁶ cm/s
"Cn1cnc(-c2ccc(-c3ccc(O[C@@H]4C[C@H]5CCC[C@H](N5)[C@@H]4F)nn3)c(O)c2)cc1=O (single isomer, unassigned) [138-ENT1]",0.051 to 0.1 µM,86%,98%,47,1.14 ×10⁻⁶ cm/s,53.9 ×10⁻⁶ cm/s
"Oc1cc2ccncc2cc1-c1ccc(O[C@H]2C[C@@H]3CCC[C@@H](N3)[C@H]2F)nn1 (single isomer, unassigned) [81-ENT2]",0.501 to 10 µM,69%,81%,3,9.23 ×10⁻⁶ cm/s,26.4 ×10⁻⁶ cm/s
"Oc1cc(-c2ccn3cnnc3c2)ccc1-c1ccc(O[C@H]2C[C@@H]3CCC[C@@H](N3)[C@H]2F)nn1 (single isomer, unassigned) [86-ENT2]",0.101 to 0.5 µM,75%,74%,48,0.42 ×10⁻⁶ cm/s,20.3 ×10⁻⁶ cm/s
"Cc1ccc(-c2ccc(-c3ccc(O[C@H]4C[C@@H]5CCC[C@@H](N5)[C@H]4F)nn3)c(O)c2)o1 (single isomer, unassigned) [99-ENT2]",0.101 to 0.5 µM,16%,55%,1,6.11 ×10⁻⁶ cm/s,6.02 ×10⁻⁶ cm/s
"Cc1cc(-c2ccc(-c3ccc(O[C@H]4C[C@@H]5CCC[C@@H](N5)[C@H]4F)nn3)c(O)c2)co1 (single isomer, unassigned) [98-ENT2]",0.101 to 0.5 µM,9%,45%,3,1.07 ×10⁻⁶ cm/s,3.23 ×10⁻⁶ cm/s
